Paper PMC3735429, “Plasmodium falciparum encodes a conserved active inhibitor-2 for Protein Phosphatase type 1: perspectives for novel anti-plasmodial therapy” (BMC Biology, 2013)
Where two headings read alike, the source gives them in different places. No end group written: not given here.

Legend:
Plasmodium falciparum = conditions: ref [1]-[3]; cited from earlier work
From the text: During its life cycle, Plasmodium falciparum, the deadliest malaria parasite for humans, undergoes several successive rounds of mitosis to amplify parasite populations and consequently to increase the rate of its transmission. Among the essential actors in the growth and division of the parasite are kinases and phosphatases. […] Subsequently, the identification of kinases and phosphatases and their central functions in P. falciparum[4-9] ...

3D7 P. falciparum strain = experiment: Growth inhibition assay of P. falciparum 3D7 (SYBR Green I, flow cytometry); format: cell-based, Plasmodium falciparum
Protocol: (§1) Assays were carried out in 96-well plates with a starting parasitemia of 0.5% at a haematocrit of 1% using SYBR Green I [81]. The peptides were added to the culture at different concentrations ranging from 80 μM to 1.25 μM (final concentrations) in a volume of 250 μl of RPMI-AlbuMAX (0.5%) and incubated for further 72 hr to allow all stages to complete at least one cycle. Cultures were stained for 30 minutes in the dark with SYBR Green I 1X (Invitrogen) diluted in 20 mM Tris pH8.8, 138 mM NaCl, and fixed with 1% paraformaldehyde. Fixed pRBC were stored at 4°C in the dark until flow cytometry analysis.
(§2) Parasite growth was assessed by flow cytometry on a FACSCalibur (Becton-Dickinson). Infected and uninfected erythrocytes were gated on the basis of their forward scatter (FSC) and side scatter (SSC) signals. Fluorescence analysis (Green fluorescence, FL-1 filter) was performed with CellQuest software (FACScan; BD Biosciences) on a total of 100,000 acquired events. Fluorescence was observed as described by Izumiyama et al.[82] on a two-parameters dot plot (FL1-SSC). Fluorescence of non-infected RBC was adjusted to plot between 10^0 and 10^1. Results are expressed in percentage of fluorescence among total RBC.
The drug concentration resulting in 50% inhibition of parasite growth (IC50) was assessed by determining the drug concentration corresponding to 50% of the parasitaemia observed in the peptide-free control wells. The IC50 value was calculated using the ICEstimator software based on a non-linear regression analysis of log-based dose–response curves. Results are presented as means ± sem.

HB3 P. falciparum strain = experiment: Growth inhibition assay of P. falciparum HB3 (SYBR Green I, flow cytometry); format: cell-based, Plasmodium falciparum
Protocol: as §1
as §2, with “RBC. […]” for “RBC.”

[1] = molecular target: His6-PfPP1 (Plasmodium falciparum)
PfPP1 [2] = experiment: Yeast two-hybrid PfI2-PfPP1 interaction; format: binding, Plasmodium falciparum; conditions: SD medium lacking leucine, tryptophan, histidine and adenine; 4 days
From the text: The full length PfPP1 was cloned into the pGBKT7 vector containing the DNA binding domain of gal4 (Gal4-BD) and wild-type, deleted or mutated PfI2 (PfI2WT, PfI2(1–94), PfI2(19–144), PfI2W16A, PfI2Y103A) into pGADT7 containing the gal4 activation domain (Gal4-AD). The pGBKT7-Gal4-BD-PfPP1 construct was used to transform Y187 strain and maintained on SD media without tryptophan (SD-W). The pGADT7-Gal4-AD-PfI2 constructs were used to transform AH 109 strain and maintained on SD media lacking leucine (SD-L). Mating these two haploid strains results in the formation of diploid strain, which is viable on SD media lacking leucine and tryptophan (SD-LW). Interaction of PfPP1 with the different versions of PfI2 proteins were evaluated by their capacity to grow on selective media: SD medium lacking leucine, tryptophan and histidine (SD-LWH) and SD medium lacking leucine, tryptophan, histidine and adenine (SD-LWHA) for 4 days. Yeasts transformed with empty vector or with pGBKT7 laminine were used as controls.

Xenopus oocytes = experiment: Induction of germinal vesicle breakdown (GVBD, G2/M transition) in microinjected Xenopus oocytes; format: cell-based; conditions: 100 ng injected; monitored 15 h; sets of 20 oocytes, repeated at least three times
Protocol: Preparation of Xenopus oocytes and microinjection experiments were performed as previously described. Briefly, in each assay, 20 oocytes removed from at least two or three different animals were microinjected with His6-PfI2 (wild type, deleted or mutated) recombinant proteins or PfI2/PfI3 derived peptides. […] Okadaic acid was used as a positive control for ability of oocytes to respond to PP inhibition (data not shown). Regarding the pre-injection experiments, deleted, mutated His6-PfI2 proteins or PfI2/PfI3 derived peptides were pre-injected (100 ng) in the oocytes 1 hour before the His6-PfI2WT injection (100 ng). GVBD was detected by the appearance of a white spot at the apex of the animal pole after 15 hours. Oocyte extracts were prepared as follow: oocytes were lysed in buffer (50 mM HEPES pH 7.4, 500 mM NaCl, 0.05% SDS, 0.5% Triton X100, 5 mM MgCl2, 1 mg/ml bovine serum albumin, 10 μg/ ml leupeptin, 10 μg/ml aprotinin, 10 μg/ml soybean trypsin inhibitor, 10 μg/ml benzamidine, 1 mM PMSF, 1 mM sodium vanadate) and centrifuged at 4°C for 15 min at 10,000 g. To detect His6-PfI2 proteins in injected extracts, electrophoresis followed by western-blot analysis performed on oocytes extracts. The membranes were developed with anti-His mAb antibody (Qiagen).

PfPP1 [3] = experiment: PfPP1 phosphatase activity assay with pNPP substrate; format: biochemical, Plasmodium falciparum; conditions: recombinant PfPP1 pre-incubated 30 min at 37°C with different concentrations of protein before pNPP; maximal effect; means of four independent experiments in duplicate
Protocol: The activity of PfPP1 with p-nitro-phenylphosphate (pNPP) was assayed as previously described. To investigate the role of PfI2 recombinant proteins or PfI2/PfI3 derived peptides on His6-PfPP1 activity, different amounts of proteins were added to 1 μg of PfPP1 recombinant protein and preincubated for 30 min at 37°C before testing the PfPP1 phosphatase activity. Okadaic acid was used as control (data not show). Results are presented as mean of increase or decrease of phosphatase activity in comparison to His6-PfPP1 incubated in the reaction buffer.

Molecule: C=C1[C@@H](O)[C@@H]2O[C@]3(CC[C@H](/C=C/[C@@H](C)[C@@H]4CC(C)=C[C@@]5(O[C@H](C[C@@](C)(O)C(=O)O)CC[C@H]5O)O4)O3)CC[C@H]2O[C@@H]1[C@@H](O)C[C@H](C)[C@H]1O[C@@]2(CCCCO2)CC[C@H]1C [okadaic acid]
- inhibition of parasite growth in vitro (Plasmodium falciparum): drastically inhibited parasite growth in vitro

Molecule: VKKKKIKREIKIKKTISWKKTISW [P1]
- IC50 (3D7 P. falciparum strain; 3D7 strain, 72 h): 23.8 µM
- IC50 (HB3 P. falciparum strain; HB3 strain, 72 h): 15 µM

Molecule: VKKKKIKREIKIKVVRWKVVRW [P5]
- IC50 (3D7 P. falciparum strain; 72 hr, 7 independent experiments, 3 batches of peptide, means ± sem, read-out: 3D7 IC50): 9.72 µM
- parasite growth inhibition (3D7 P. falciparum strain; at 80 μM, 72 hr, blood stage 3D7, means of seven independent experiments in duplicate): up to 90%
- IC50 (HB3 P. falciparum strain; 72 hr, 2 different batches, means ± sem, read-out: HB3 IC50): 8.79 µM

B1: His6-PfI2WT (natural protein)
chain: MKKKVDKSVTKKTISWDEVTINEQDKERGSRMKILEPNTPFNFILMDSASEDEASKYGDVKGSDEGQNNIADDLINKLNQLVEKQENKGVSNIDFKEKRKKHYNEYKMLQKLRKSGTLDDIDEEYKPDNKDSNCDNSNMNESEE
- phosphatase activity of recombinant PfPP1 on pNPP after pre-incubation for 30 min at 37°C with different concentrations of PfI2WT; inhibition [1]: 80%

B2: PfI2WT: wild-type recombinant His-tagged P. falciparum inhibitor-2, 144 amino acids (protein)
chain: B1 chain
modifications: left off: His6, end not stated, kept
- growth of diploid yeast with PfPP1 on SD-LWHA (stringent conditions) (PfPP1 [2]): still able to grow
- GVBD induced (Xenopus oocytes): ~ 85%
- decrease in PfPP1 phosphatase activity (PfPP1 [3]): up to 80%
